Measurements taken from patent US10981894B2, “Melanocortin subtype-2 receptor (MC2R) antagonists and uses thereof” (Crinetics Pharmaceuticals, Inc., priority 2018, dated 2021).

biological target: hMC2 receptor (Homo sapiens, UniProt Q01718); test: hMC2 membrane binding assay ([125I]ACTH (1-39) Tyr23, SPA); design: scale not given here; settings: crude hMC2R membranes from CRE-bla-CHO-K1 cells expressing hMC2 receptor and hMRAP; [125I]ACTH (1-39) Tyr23 0.2 nM; 1.5 hours at room temperature; read-out: MC2R binding potency
Sequence (Q01718 whole entry): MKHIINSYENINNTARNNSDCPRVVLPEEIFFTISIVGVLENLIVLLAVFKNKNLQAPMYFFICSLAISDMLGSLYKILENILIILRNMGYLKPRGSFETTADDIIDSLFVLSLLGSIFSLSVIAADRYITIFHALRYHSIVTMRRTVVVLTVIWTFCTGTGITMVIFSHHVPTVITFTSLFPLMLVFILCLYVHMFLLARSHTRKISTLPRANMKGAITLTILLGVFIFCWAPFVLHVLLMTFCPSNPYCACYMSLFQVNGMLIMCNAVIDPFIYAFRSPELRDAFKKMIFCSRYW
Sequence (Q8TCY5 whole entry partner): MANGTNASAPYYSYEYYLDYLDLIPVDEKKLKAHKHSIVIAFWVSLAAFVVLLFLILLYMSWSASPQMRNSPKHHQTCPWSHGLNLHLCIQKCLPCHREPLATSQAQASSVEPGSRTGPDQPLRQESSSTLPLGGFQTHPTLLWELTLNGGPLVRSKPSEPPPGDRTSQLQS
How it was run: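 CRE-bla-CHO-K1 membranes co-expressing hMC2 receptor and hMRAP, preincubated with WGA PVT SPA beads in pH 7.4 HEPES/MgCl2/CaCl2/0.2% BSA buffer. Compounds (typically 0–10,000 nM final) compete with 0.2 nM [125I]ACTH(1-39) Tyr23 for 1.5 h at room temperature. SPA counts give Ki by non-linear regression.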

Ki, < 0.01 µM:
CCOc1ncccc1-c1ccc(N2CCN(C(=O)C3(C(F)(F)F)CCCCC3)C[C@H]2CC)c(C(=O)N[C@@H]2CCNC2)n1 [Compound 1-273, 2′-ethoxy-5-[(2R)-2-ethyl-4-[1-(trifluoromethyl)cyclohexanecarbonyl]piperazin-1-yl]-N-[(3R)-pyrrolidin-3-yl]-[2,3′-bipyridine]-6-carboxamide]
CCOc1ccccc1-c1ccc(N2CCN(C(=O)N3CCCC3C(C)(C)C)C[C@H]2CC)c(C(=O)N[C@@H]2CCNC2)n1 (stereo partly drawn) [Compound 1-305, 3-[(2R)-4-(2-tert-butylpyrrolidine-1-carbonyl)-2-ethylpiperazin-1-yl]-6-(2-ethoxyphenyl)-N-[(3R)-pyrrolidin-3-yl]pyridine-2-carboxamide]
CCOc1ccccc1-c1ccc(N2CCN(C(=O)c3ccc(Cl)cc3C(F)F)C[C@H]2CC)c(C(=O)N[C@@H]2CCN(C)C2)n1 [Compound 1-287, 3-[(2R)-4-[4-chloro-2-(difluoromethyl)benzoyl]-2-ethylpiperazin-1-yl]-6-(2-ethoxyphenyl)-N-[(3R)-1-methylpyrrolidin-3-yl]pyridine-2-carboxamide]
CCOc1ccccc1-c1ccc(N2CCN(C(=O)c3ccc(F)cc3-c3ccc(CN)cc3)C[C@H]2CC)c(C(=O)NCCN)c1 [Compound 1-17, N-(2-aminoethyl)-4-[(2R)-4-[4′-(aminomethyl)-5-fluoro-[1,1′-biphenyl]-2-carbonyl]-2-ethylpiperazin-1-yl]-2′-ethoxy-[1,1′-biphenyl]-3-carboxamide]
CCOc1ncccc1-c1ccc(N2CCN(C(=O)C3(C(F)(F)F)CCCC3)C[C@H]2CC)c(C(=O)N[C@@H]2CCN(C)C2)n1 [Compound 1-255, 2′-ethoxy-5-[(2R)-2-ethyl-4-[1-(trifluoromethyl)cyclopentanecarbonyl]piperazin-1-yl]-N-[(3R)-1-methylpyrrolidin-3-yl]-[2,3′-bipyridine]-6-carboxamide]
CCOc1ncccc1-c1ccc(N2CCN(C(=O)C34CCC(CC3)C4(C)C)C[C@H]2CC)c(C(=O)N[C@@H]2CCNC2)n1 [Compound 1-314, 5-[(2R)-4-{7,7-dimethylbicyclo[2.2.1]heptane-1-carbonyl}-2-ethylpiperazin-1-yl]-2′-ethoxy-N-[(3R)-pyrrolidin-3-yl]-[2,3′-bipyridine]-6-carboxamide]
CCOc1ncccc1-c1ccc(N2CCN(C(=O)O[C@@H](C(C)(C)C)C(F)(F)F)C[C@H]2CC)c(C(=O)N[C@@H]2CCN(C)C2)n1 (single isomer, unassigned) [Compound 1-407]
CCOc1ncccc1-c1ccc(N2CCN(C(=O)C3(C(F)(F)F)CCCC3)C[C@H]2CC)c(C(=O)NC[C@H]2CCN2C)n1 [Compound 1-330, 2′-ethoxy-5-[(2R)-2-ethyl-4-[1-(trifluoromethyl)cyclopentanecarbonyl]piperazin-1-yl]-N-{[(2R)-1-methylazetidin-2-yl]methyl}-[2,3′-bipyridine]-6-carboxamide]
CCOc1ccccc1-c1ccc(N2CCN(C(=O)C3(C(F)(F)F)CCC3)C[C@H]2CC)c(C(=O)N[C@@H]2CCN(C)C2)n1 [Compound 1-344, 6-(2-ethoxyphenyl)-3-[(2R)-2-ethyl-4-[1-(trifluoromethyl)cyclobutanecarbonyl]piperazin-1-yl]-N-[(3R)-1-methylpyrrolidin-3-yl]pyridine-2-carboxamide]
CCOc1ncccc1-c1ccc(N2CCN(C(=O)C3(C(F)(F)F)CCC3)C[C@H]2CC)c(C(=O)N[C@@H]2CCNC2)n1 [Compound 1-280, 2′-ethoxy-5-[(2R)-2-ethyl-4-[1-(trifluoromethyl)cyclobutanecarbonyl]piperazin-1-yl]-N-[(3R)-pyrrolidin-3-yl]-[2,3′-bipyridine]-6-carboxamide]
CCOc1ncccc1-c1ccc(N2CCN(C(=O)c3ccc(Cl)cc3C(F)(F)F)C[C@H]2CC)c(C(=O)N[C@H]2CCNC2)c1F [Compound 1-200, 6-[(2R)-4-[4-chloro-2-(trifluoromethyl)benzoyl]-2-ethylpiperazin-1-yl]-3-(2-ethoxypyridin-3-yl)-2-fluoro-N-[(3S)-pyrrolidin-3-yl]benzamide]
CCOc1ncccc1-c1ccc(N2CCN(C(=O)c3ccc(Cl)cc3N3CCC(N)CC3)C[C@H]2CC)c(C(=O)NCCN)c1 [Compound 1-52, N-(2-aminoethyl)-2-[(2R)-4-[2-(4-aminopiperidin-1-yl)-4-chlorobenzoyl]-2-ethylpiperazin-1-yl]-5-(2-ethoxypyridin-3-yl)benzamide]
CCOc1ncccc1-c1ccc(N2CCN(C(=O)N3CCc4cccc(F)c43)C[C@H]2CC)c(C(=O)N[C@@H]2CCNC2)n1 [Compound 1-350, 2′-ethoxy-5-[(2R)-2-ethyl-4-(7-fluoro-2,3-dihydro-1H-indole-1-carbonyl)piperazin-1-yl]-N-[(3R)-pyrrolidin-3-yl]-[2,3′-bipyridine]-6-carboxamide]
CCOc1ccccc1-c1ccc(N2CCN(C(=O)c3ccc(OC)nc3C(F)(F)F)C[C@H]2CC)c(C(=O)N[C@@H]2CCNC2)n1 [Compound 1-254, 6-(2-ethoxyphenyl)-3-[(2R)-2-ethyl-4-[6-methoxy-2-(trifluoromethyl)pyridine-3-carbonyl]piperazin-1-yl]-N-[(3R)-pyrrolidin-3-yl]pyridine-2-carboxamide]
CCOc1ccccc1-c1ccc(N2CCN(C(=O)N3CCC[C@H]3C(F)(F)F)C[C@H]2CC)c(C(=O)NCC2CN(C)C2)n1 [Compound 1-362, 6-(2-ethoxyphenyl)-3-[(2R)-2-ethyl-4-[(2S)-2-(trifluoromethyl)pyrrolidine-1-carbonyl]piperazin-1-yl]-N-[(1-methylazetidin-3-yl)methyl]pyridine-2-carboxamide]
CCOc1ccccc1-c1ccc(N2CCN(C(=O)N3CCc4cccc(C#N)c43)C[C@H]2CC)c(C(=O)N[C@@H]2CCN(C)C2)n1 [Compound 1-393, 3-[(2R)-4-(7-cyano-2,3-dihydro-1H-indole-1-carbonyl)-2-ethylpiperazin-1-yl]-6-(2-ethoxyphenyl)-N-[(3R)-1-methylpyrrolidin-3-yl]pyridine-2-carboxamide]
CCOc1ncccc1-c1ccc(N2CCN(C(=O)c3ccc(Cl)cc3Cl)C[C@H]2CC)c(C(=O)N[C@@H]2CCNC2)n1 [Compound 1-267, 5-[(2R)-4-(2,4-dichlorobenzoyl)-2-ethylpiperazin-1-yl]-2′-ethoxy-N-[(3R)-pyrrolidin-3-yl]-[2,3′-bipyridine]-6-carboxamide]
CCOc1ncccc1-c1ccc(N2CCN(C(=O)C3(C(F)(F)F)CCCC3)C[C@H]2CC)c(C(=O)NC[C@@H]2CCCN2C)n1 [Compound 1-332, 2′-ethoxy-5-[(2R)-2-ethyl-4-[1-(trifluoromethyl)cyclopentanecarbonyl]piperazin-1-yl]-N-{[(2S)-1-methylpyrrolidin-2-yl]methyl}-[2,3′-bipyridine]-6-carboxamide]
CCOc1ncccc1-c1ccc(N2CCN(C(=O)OC(C(C)(C)C)C(F)(F)F)C[C@H]2CC)c(C(=O)N[C@@H]2CCNC2)n1 (single isomer, unassigned) [Compound 1-367, (2S*)-1,1,1-trifluoro-3,3-dimethylbutan-2-yl (3R)-4-(2′-ethoxy-6-{[(3R)-pyrrolidin-3-yl]carbamoyl}-[2,3′-bipyridin]-5-yl)-3-ethylpiperazine-1-carboxylate]
